The target of experiment [1] is T1, human motilin receptor (Homo sapiens, UniProt O43193). Kind of experiment: Aequorin functional assay (motilin receptor). The settings on record: for IC50: functional activity, antagonist testing vs motilin 0.5 nM (EC80). The arrangement: host or cells: CHO-K1 cells co-expressing Gα16 and mitochondrially targeted Aequorin. Format: cell-based. How it is done: B. Aequorin Functional Assay (Motilin Receptor)
The evaluation of compounds of the invention for functional activity can be conducted according to literature methods or as described below. (Carreras, C. W.; Siani, M. A.; Santi, D. V.; Dillon, S. B. Anal. Biochem. 2002, 300, 146-151.)
• Membranes were prepared using AequoScreen™ (EUROSCREEN, Belgium) cell lines expressing the human motilin receptor (cell line ES-380-A; receptor accession #AF034632). This cell line is constructed by transfection of the human motilin receptor into CHO-K1 cells co-expressing Gα16 and the mitochondrially targeted Aequorin (Ref. #ES-WT-A5). • Motilin (Bachem, #H-4385) • Assay buffer: DMEM-F12 (Dulbeccoe's Modified Eagles Medium) with 15 mM HEPES and 0.1% BSA (pH 7.0) • Coelenterazine (Molecular Probes™, Leiden, The Netherlands) Final Test Concentrations (N=5) for Compounds: • 10, 3.16, 1.0, 0.316, 0.10 μM. Compound Handling:
Compounds were provided as dry films at a quantity of approximately 1.2 μmol in pre-formatted 96-well plates. Compounds were dissolved in 100% DMSO at a concentration of 10 mM and stored at −20° C. until further use. Daughter plates were prepared at a concentration of 500 μM in 30% DMSO with 0.1% BSA and stored at −20° C. until testing. On the test day, compounds were allowed to thaw at room temperature and than diluted in assay buffer according to the desired test concentrations. Under these conditions, the maximum final DMSO concentration in the assay was 0.6%.
Cells are collected from culture plates with Ca^2+ and Mg^2+-free phosphate buffered saline (PBS) supplemented with 5 mM EDTA, pelleted for 2 minutes at 1000×g, resuspended in assay buffer (see above) at a density of 5×10^6 cells/mL and incubated overnight in the presence of 5 μM coelenterazine. After loading, cells were diluted with assay buffer to a concentration of 5×10^5 cells/mL.
For agonist testing, 50 μL of the cell suspension was mixed with 50 μL of the appropriate concentration of test compound or motilin (reference agonist) in 96-well plates (duplicate samples). The emission of light resulting from receptor activation was recorded using the Functional Drug Screening System 6000 ‘FDSS 6000’ (Hamamatsu Photonics K. K., Japan).
For antagonist testing, an approximate EC80 concentration of motilin (i.e. 0.5 nM; 100 μL) was injected onto the cell suspension containing the test compounds (duplicate samples) 15-30 minutes after the end of agonist testing and the consequent emission of light resulting from receptor activation was measured as described in the paragraph above.
Results are expressed as Relative Light Units (RLU). Concentration response curves were analyzed using GraphPad™ Prism® (GraphPad Software, San Diego, Calif.) by non-linear regression analysis (sigmoidal dose-response) based on the equation E=Emax/(1+EC50/C)n where E is the measured RLU value at a given agonist concentration (C), Emax is the maximal response, EC50 is the concentration producing 50% stimulation and n is the slope index. For agonist testing, results for each concentration of test compound were expressed as percent activation relative to the signal induced by motilin at a concentration equal to the EC80 (i.e. 0.5 nM). For antagonist testing, results for each concentration of test compound were expressed as percent inhibition relative to the signal induced by motilin at a concentration equal to the EC80 (i.e. 0.5 nM).

The target in experiment [2] is T1, human motilin receptor. Kind of experiment: Competitive radioligand binding assay (motilin receptor). The conditions noted are these: for Ki: [125I]-motilin competition, membranes of CHO cells with human motilin receptor, read-out: Ki. The arrangement: purchased PerkinElmer (SignalScreen) 6110544; host or cells: CHO cells, stably transfected; membranes. As for the experimental part:
A. Competitive Radioligand Binding Assay (Motilin Receptor)
The competitive binding assay at the human motilin receptor was carried out analogously to assays described in the literature.
• Membranes were prepared from CHO cells stably transfected with the human motilin receptor and utilized at a quantity of 1.5 μg/assay point. [PerkinElmer™ SignalScreen Product #6110544] • [^125I]-Motilin (PerkinElmer, #NEX-378); final concentration: 0.04-0.06 nM • Motilin (Bachem™, #H-4385); final concentration: 1 μM • Multiscreen Harvest plates-GF/B (Millipore™, #MAHFB1H60) • Deep-well polypropylene titer plate (Beckman Coulter™, #267006) • TopSeal-A (PerkinElmer, #6005185) • Bottom seal (Millipore, #MATAH0P00) • MicroScint-0 (PerkinElmer, #6013611) • Binding Buffer: 50 mM Tris-HCl (pH 7.4), 10 mM MgCl2, 1 mM EDTA, 0.1% BSA Assay Volumes: • 150 μL of membranes diluted in binding buffer • 10 μL of compound diluted in binding buffer • 10 μL of radioligand ([^125I]-Motilin) diluted in binding buffer Final Test Concentrations (N=11) for Compounds: • 10, 5.0, 2.0, 1.0, 0.50, 0.20, 0.10, 0.050, 0.020, 0.010, 0.0050 μM. Compound Handling:
Compounds were provided frozen on dry ice at a stock concentration of 10 mM diluted in 100% DMSO and stored at −20° C. until the day of testing. On the test day, compounds were allowed to thaw at room temperature and than diluted in assay buffer according to the desired test concentrations. Under these conditions, the maximum final DMSO concentration in the assay was 0.5%.
In deep-well plates, diluted cell membranes (1.5 μg/mL) are combined with 10 μL of either binding buffer (total binding, N=5), 1 μM motilin (non-specific binding, N=3) or the appropriate concentration of test compound. The reaction is initiated by addition of 10 μL of [^125I]-motilin (final conc. 0.04-0.06 nM) to each well. Plates are sealed with TopSeal-A, vortexed gently and incubated at room temperature for 2 hours. The reaction is arrested by filtering samples through pre-soaked (0.3% polyethyleneimine, 2 h) Multiscreen Harvest plates using a Tomtec Harvester, washed 9 times with 500 μL of cold 50 mM Tris-HCl (pH 7.4), and than plates are air-dried in a fumehood for 30 minutes. A bottom seal is applied to the plates prior to the addition of 25 μL of MicroScint-0 to each well. Plates are than sealed with TopSeal-A and counted for 30 sec per well on a TopCount Microplate Scintillation and Luminescence Counter (PerkinElmer) where results are expressed as counts per minute (cpm).
Data are analyzed by GraphPad™ Prism® (GraphPad Software, San Diego, Calif.) using a variable slope non-linear regression analysis.
[formula] where total and non-specific binding represent the cpm obtained in the absence or presence of 1 μM motilin, respectively.

Broadly, the IC50 is the concentration needed to halve the response being measured. Usually Ki stands for a measure of affinity in units of concentration, obtained from inhibition or displacement. A word on the Kd: it is a measure of binding affinity in units of concentration.

Where only a bound is given, the exact number is not on record here.

T1 sequence (O43193 whole entry): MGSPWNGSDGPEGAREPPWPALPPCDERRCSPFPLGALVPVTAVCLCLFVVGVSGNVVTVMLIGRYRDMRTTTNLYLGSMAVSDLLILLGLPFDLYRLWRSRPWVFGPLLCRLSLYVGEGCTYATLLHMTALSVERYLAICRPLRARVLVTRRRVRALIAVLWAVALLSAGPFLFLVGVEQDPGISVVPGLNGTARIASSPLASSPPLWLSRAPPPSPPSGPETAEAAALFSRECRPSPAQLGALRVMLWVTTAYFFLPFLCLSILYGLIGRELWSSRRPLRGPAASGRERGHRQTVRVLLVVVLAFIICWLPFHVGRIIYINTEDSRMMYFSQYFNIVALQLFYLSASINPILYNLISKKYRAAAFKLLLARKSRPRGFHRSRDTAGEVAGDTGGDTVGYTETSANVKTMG

In experiment [1], `CC(C)[C@H]1NC(=O)[C@@H](Cc2cccc(C(F)(F)F)c2)NCCOc2ccccc2CCCNC(=O)[C@H](CNC(=N)N)NC1=O` [Compound 503] came in with an IC50 of at most 100 nM.

Take `CC(C)[C@H]1NC(=O)[C@@H](Cc2cccc(C(F)(F)F)c2)NCCOc2ccccc2C[C@@H](C)CNC(=O)[C@H](CNC(=N)N)NC1=O` [Compound 504]: in experiment [2], the Ki was at most 100 nM. The compound also yielded an IC50 in experiment [1] of at most 100 nM.

For the compound `CC(C)[C@H]1NC(=O)[C@@H](Cc2cccc(C(F)(F)F)c2)NCCOc2ccccc2C[C@H](C)CNC(=O)[C@H](CNC(=N)N)NC1=O` [Compound 505], the Ki in experiment [2] is at most 10 nM. Further, the half-maximal inhibitory concentration (IC50) in experiment [1] was at most 10 nM.

Consider `CCC[C@@H]1NC(=O)[C@@H](C(C)C)NC(=O)[C@@H](Cc2cccc(F)c2)N[C@H](C)COc2ccccc2CCCNC1=O` [Compound 513], for which the Ki in experiment [2] was at most 100 nM. The compound further returned an IC50 in experiment [1] of at most 100 nM.

`CC(C)[C@H]1NC(=O)[C@@H](Cc2cccc(Cl)c2)N[C@@H](C)COc2ccccc2CCCNC(=O)[C@H](CNC(=N)N)NC1=O` [Compound 516] registered an IC50 in experiment [1] of at most 100 nM.

As for `CC(C)[C@H]1NC(=O)[C@@H](Cc2cccc(F)c2)N[C@@H](C)COc2ccccc2CCCNC(=O)[C@H](CN(C)C)NC1=O` [Compound 529], the Ki in experiment [2] is at most 10 nM. For the same compound, the half-maximal inhibitory concentration (IC50) in experiment [1] was at most 10 nM.

Turning to `CC(C)[C@H]1NC(=O)[C@@H](Cc2cccc(C(F)(F)F)c2)NCCOc2ccccc2CCCNC(=O)[C@H](CN2CCCC2)NC1=O` [Compound 532], the Ki in experiment [2] was at most 10 nM. In experiment [1], this compound gave a half-inhibitory concentration (IC50) of at most 100 nM.

For the compound `CC(C)[C@H]1NC(=O)[C@@H](Cc2cccc(F)c2)N[C@@H](C)COc2ccccc2CCCNC(=O)[C@H](CN2CCCC2)NC1=O` [Compound 533], the Ki in experiment [2] was at most 100 nM. Besides, the half-inhibitory concentration (IC50) in experiment [1] is at most 10 nM.

On to `CC(C)[C@H]1NC(=O)[C@@H](Cc2cccc(F)c2)N[C@@H](C)COc2ccccc2CCCNC(=O)[C@H](CN2CCOCC2)NC1=O` [Compound 534], for which, in experiment [2], the Ki was at most 100 nM. Moreover, the IC50 in experiment [1] is at most 10 nM.

For the compound `CC(C)[C@H]1NC(=O)[C@@H](Cc2cccc(F)c2)N[C@@H](C)COc2ccccc2CCCNC(=O)[C@H](CNc2ncccn2)NC1=O` [Compound 535], in experiment [2], the Ki is at most 100 nM. The same compound yielded an IC50 in experiment [1] of at most 10 nM.

Consider `Cc1cnnn1C[C@@H]1NC(=O)[C@@H](C(C)C)NC(=O)[C@@H](Cc2cccc(F)c2)N[C@@H](C)COc2ccccc2CCCNC1=O` [Compound 536], for which the Ki in experiment [2] is at most 100 nM. In addition, in experiment [1], the IC50 was at most 100 nM.

For `CC(C)[C@H]1NC(=O)[C@@H](Cc2cccc(C(F)(F)F)c2)NCCOc2ccccc2CCCNC(=O)[C@H](CN=[N+]=[N-])NC1=O` [Compound 537], the inhibition constant (Ki) in experiment [2] is at most 10 nM. The compound further gave an IC50 in experiment [1] of at most 1 nM.

`CC(C)[C@H]1NC(=O)[C@@H](Cc2ccc(Cl)cc2)NCCOc2ccccc2CCCNC(=O)[C@H](CNC(N)=O)NC1=O` [Compound 577]: the Ki in experiment [2] was at most 1000 nM.

Take `CC(C)NC[C@@H]1NC(=O)[C@@H](C(C)C)NC(=O)[C@@H](Cc2ccc(O)cc2)NCCOc2ccccc2CCCNC1=O` [Compound 579]: the Ki in experiment [2] is at most 1000 nM.

As for `CC(C)NC[C@@H]1NC(=O)[C@@H](C(C)C)NC(=O)[C@@H](Cc2ccc(Cl)cc2)NCCOc2ccccc2CCCNC1=O` [Compound 581], the Ki in experiment [2] is at most 100 nM.

With `COc1ccc(C[C@H]2NCCOc3ccccc3CCCNC(=O)[C@H](CCO)NC(=O)[C@@H](C(C)C)NC2=O)cc1` [Compound 583], the Ki in experiment [2] is at most 1000 nM.

On to `CC(C)[C@H]1NC(=O)[C@@H](Cc2cccc(F)c2)NCCOc2ccccc2CCCNC(=O)[C@H](CC2CC2)NC1=O` [Compound 584], for which the Ki in experiment [2] is at most 100 nM.

Consider `CC(C)[C@H]1NC(=O)[C@@H](Cc2cccc(F)c2)NCCOc2ccccc2C[C@@H](C)CNC(=O)[C@H](CC2CC2)NC1=O` [Compound 587], for which the Ki in experiment [2] is at most 100 nM.

Consider `CC(C)[C@H]1NC(=O)[C@@H](Cc2cccc(F)c2)NCCOc2ccccc2C[C@H](C)CNC(=O)[C@H](CC2CC2)NC1=O` [Compound 588], for which the Ki in experiment [2] was at most 10 nM.

With `CC[C@H](C)[C@H](NC(=O)[C@@H]1CCCN1C(=O)[C@@H](NC(=O)[C@@H](N)Cc1ccccc1)C(C)C)C(=O)N[C@@H](Cc1ccccc1)C(=O)N[C@H](C(=O)N[C@@H](Cc1ccc(O)cc1)C(=O)NCC(=O)N[C@@H](CCC(=O)O)C(=O)N[C@@H](CC(C)C)C(=O)N[C@@H](CCC(N)=O)C(=O)N[C@@H](CCCNC(=N)N)C(=O)N[C@@H](CCSC)C(=O)N[C@@H](CCC(N)=O)C(=O)N[C@@H](CCC(=O)O)C(=O)N[C@@H](CCCCN)C(=O)N[C@@H](CCC(=O)O)C(=O)N[C@@H](CCCNC(=N)N)C(=O)N[C@@H](CC(N)=O)C(=O)N[C@@H](CCCCN)C(=O)NCC(=O)N[C@@H](CCC(N)=O)C(=O)O)[C@@H](C)O` [[^125I]-motilin, [^125I]-Motilin, reference compound], in experiment [2] (previously determined during membrane characterization), the Kd came to 0.16 nM.

As to `CC[C@H](C)[C@H](NC(=O)[C@@H]1CCCN1C(=O)[C@@H](NC(=O)[C@@H](N)Cc1ccccc1)C(C)C)C(=O)N[C@@H](Cc1ccccc1)C(=O)N[C@H](C(=O)N[C@@H](Cc1ccc(O)cc1)C(=O)NCC(=O)N[C@@H](CCC(=O)O)C(=O)N[C@@H](CC(C)C)C(=O)N[C@@H](CCC(N)=O)C(=O)N[C@@H](CCCNC(=N)N)C(=O)N[C@@H](CCSC)C(=O)N[C@@H](CCC(N)=O)C(=O)N[C@@H](CCC(=O)O)C(=O)N[C@@H](CCCCN)C(=O)N[C@@H](CCC(=O)O)C(=O)N[C@@H](CCCNC(=N)N)C(=O)N[C@@H](CC(N)=O)C(=O)N[C@@H](CCCCN)C(=O)NCC(=O)N[C@@H](CCC(N)=O)C(=O)O)[C@@H](C)O` [motilin], the “approximate EC80 concentration” value in experiment [1] (reference agonist) is around 0.5 nM.

These data come from patent US9133235B2, “Macrocyclic antagonists of the motilin receptor for treatment of gastrointestinal dysmotility disorders” (Ocera Therapeutics, Inc., priority 2006, dated 2015).
